In general, IC50 refers to the concentration needed to halve the response being measured.

Drawing on ChEMBL document CHEMBL5053558, “Novel Indole Compounds as TEAD Inhibitors for Treating Cancer” (ACS Med Chem Lett, 2021), this text covers IC50 for six molecules.

This test in a line: Inhibition of TEAD in human tumour cells assessed as YAP1/TAZ-TEAD modulation incubated for 48 hrs by Bright-Glo luciferase assay. It counts as cell-based. The settings on record: Tumor Cell line.

Turning to `C=CC(=O)Nc1ccc2c(c1)c(C)cn2-c1ccc(C(F)(F)F)cc1`, the IC50 was 9 nM.

Consider `C=CC(=O)Nc1ccc2c(c1)c(COC)cn2-c1ccc(C(F)(F)F)cc1`, for which the IC50 is 15 nM.

Turning to `C=CC(=O)Nc1ccc2c(ccn2-c2ccc(C(F)(F)F)cc2)c1`, the IC50 turned out to be 8 nM.

Consider `C=CC(=O)Nc1ccc2c(ccn2Cc2ccc(-c3cccc(C(F)(F)F)c3)cc2)c1`, for which the IC50 came out at 20 nM.

With `C=CC(=O)Nc1cc2ccn(Cc3cccc(C(F)(F)F)c3)c2cc1F`, the IC50 worked out at 18 nM.

For the molecule `C=CC(=O)Nc1ccc2c(c1)cc(C)n2-c1ccc(C(F)(F)F)cc1`, the IC50 was 12 nM.
